Some test systems named below: NCI/ADR-RES ovarian; MCF7 breast; MDA-MB-435; MDA-MB-231 breast; T-47D breast; P388 leukemia; SN12K1 renal; HOP-18 NSCLC; P388/ADR leukemia; HS 578T breast.
Common to all, as to experiment: NCI tumour cell line growth inhibition, 48 h

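In this assay, cells in 96-well plates receive the compound at five concentrations for 48 hours. Endpoints are linearly interpolated between the surrounding concentrations. TGI: total growth inhibition.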 Bounds are passed on as bounds.

`CCN(CC)CCNC(=O)c1cc2cc(NC(=O)c3cc4cc([N+](=O)[O-])ccc4[nH]3)ccc2[nH]1`: the TGI in the assay with NCI/ADR-RES ovarian, with MCF7 breast, with MDA-MB-435, in the assay with MDA-MB-231 breast and in the assay on T-47D breast was more than 100 µM each time.
In the case of `CCCCCCCC/C=C\CCCCCCCCCCCC(=O)O`, the TGI with P388 leukemia was 51.6 µM; with SN12K1 renal, 52.4 µM; in the assay on NCI/ADR-RES ovarian, more than 125 µM; in the assay on MCF7 breast, 33.8 µM; with HOP-18 NSCLC, more than 125 µM; in the assay with P388/ADR leukemia it was 36.3 µM.
Compound `CC1=C(Cl)C=CP(=O)(Oc2ccccc2)C1` (stereo not given) had a TGI in the assay on HOP-18 NSCLC of 89.6 µM.
Regarding `N=c1nnc2ccc(Cl)cc2n1O`, the TGI with NCI/ADR-RES ovarian, with MCF7 breast, with MDA-MB-435, with MDA-MB-231 breast, with T-47D breast and in the assay with HS 578T breast was more than 100 µM in each case.
The compound `Cc1ccc(NC(=O)CC2Sc3ccccc3NC2=O)cc1C` (stereo not given) showed a TGI in the assay with HOP-18 NSCLC of more than 100 µM.
On the same count and under the same terms, as for `COc1ccc(/C=c2\sc3n(c2=O)CCN=3)cc1`, the figure is more than 100 µM.
Take `Nc1c(S(=O)(=O)O)cc2cc(S(=O)(=O)O)ccc2c1N=Nc1ccc(-c2ccc(N=Nc3c(N)c(S(=O)(=O)O)cc4cc(S(=O)(=O)O)ccc34)c(S(=O)(=O)O)c2)cc1`: the TGI with P388 leukemia is more than 100 µM; in the assay with SN12K1 renal, more than 100 µM; with NCI/ADR-RES ovarian, more than 100 µM; in the assay on MCF7 breast, 51.4 µM; in the assay with HOP-18 NSCLC, more than 100 µM; with P388/ADR leukemia, more than 100 µM.
For `Oc1ccc(-c2nc3ccc(Br)cc3s2)cc1`, the TGI with NCI/ADR-RES ovarian was determined as 67.3 µM; with MCF7 breast, 74.5 µM; in the assay with MDA-MB-435, 53.4 µM; with MDA-MB-231 breast, 45 µM.

The record behind these values is PubChem BioAssay (NCI).
